Measurements published in article PMC9694146, “Novel [1,2,4]triazolo[3,4-b][1,3,4]thiadiazine and [1,2,4]triazolo[3,4-b][1,3,4]thiadiazepine Derivatives: Synthesis, Anti-Viral In Vitro Study and Target Validation Activity” (Molecules, 2022).

Test system: not given
Assay: not given
Conditions: not given

Question: For `CCCc1nnc2n1NCC=C(c1ccccc1)S2`, which melting point is on record?
Answer: The melting point was 103 to 104 °C.

Question: For `CCCc1nnc2n1N=CC=C(c1ccccc1)S2`, which melting point is on record?
Answer: The melting point was 88 to 89 °C.

Test system: MDCK cells (ATCC CCL-34)
Assay: Cytotoxicity, methyltetrazolium (MTT) assay on MDCK cell monolayer
Assay type: cell-based
Conditions: 300 μg/mL, 1100–1300 μM
Procedure: (§1) The cytotoxic properties of the compounds were investigated in a separate series of experiments. A series of threefold dilutions (300–3.7 µg/mL) were prepared from the test compounds, after which they were added to the wells of plates with a monolayer of MDCK cells (ATCC CCL-34). […] The plates with cells were incubated for 2 h. The precipitate was dissolved in DMSO (0.1 mL per well). The optical density in the wells was measured on a Thermo Multiskan FC plate photometer (Thermo Fisher Scientific, USA) at a wavelength of 540 nm. Based on the obtained data, CC50 values (the concentration of the compound, leading to a decrease in optical density by half, compared to wells without the addition of compounds) were calculated.

Question: Which “cytotoxicity at the highest concentration used” value does the source give for `CCCc1nnc2n1N=C/C(=C/c1ccccc1)S2` [Compound 6d, (Z)-7-benzylidene-3-propyl-7H-[1,2,4]triazolo[3,4-b][1,3,4]thiadiazine] here?
Answer: Its value is “did not demonstrate cytotoxicity”.

Same assay, conditions: 72 h, MTT

Question: Which “CC50, cytotoxic concentration; the concentration resulting in 50% death of cells” value does the source give for `CCc1nnc2n1N=CC=C(c1ccccc1)S2` [Compound 7c, 3-ethyl-8-phenyl-[1,2,4]triazolo[3,4-b][1,3,4]thiadiazepine] here?
Answer: Its value is “one-digit micromoles”.

Test system: not listed separately
Assay: as above
Assay type: cell-based
Conditions: dog; MDCK cells, 72 h, MTT; read-out: CC50, cytotoxic concentration; the concentration resulting in 50% death of cells
Procedure: as §1

Question: Which CC50 at 72 h does the source give for `CCc1nnc2n1NCC=C(c1ccccc1)S2` [Compound 10c, 3-ethyl-8-phenyl-5,6-dihydro-[1,2,4]triazolo[3,4-b][1,3,4]thiadiazepine] here?
Answer: Its CC50 at 72 h is 972 ± 66.4 µM.

Question: Which CC50 at 72 h does the source give for `Sc1nncn1NCC#Cc1ccccc1` [Compound 2a, 4-((3-phenylprop-2-yn-1-yl)amino)-4H-1,2,4-triazole-3-thiol] here?
Answer: Its CC50 at 72 h is > 1300 µM.

Question: For `CC(N)C12CC3CC(CC(C3)C1)C2` (centres unmarked) [Rimantadine, reference compound], which CC50 at 72 h is on record?
Answer: The CC50 at 72 h was 312 ± 22.8 µM.

Question: Which CC50 at 72 h does the source give for `Cc1nnc2n1NCC=C(c1ccccc1)S2` [Compound 10b, 3-methyl-8-phenyl-5,6-dihydro-[1,2,4]triazolo[3,4-b][1,3,4]thiadiazepine] here?
Answer: Its CC50 at 72 h is > 1100 µM.

Question: Which CC50 at 72 h does the source give for `C1=Nn2cnnc2SC(c2ccccc2)=C1` [Compound 7a, 8-phenyl-[1,2,4]triazolo[3,4-b][1,3,4]thiadiazepine] here?
Answer: The CC50 at 72 h was 42.9 ± 3.2 µM.

Question: Which CC50 at 72 h does the source give for `C1=C(c2ccccc2)Sc2nncn2NC1` [Compound 10a, 8-phenyl-5,6-dihydro-[1,2,4]triazolo[3,4-b][1,3,4]thiadiazepine] here?
Answer: The CC50 at 72 h was > 1300 µM.

Question: Which CC50 at 72 h does the source give for `Cc1nnc2n1NC/C(=C/c1ccccc1)S2` [Compound 8b, (Z)-7-benzylidene-3-methyl-6,7-dihydro-5H-[1,2,4]triazolo[3,4-b][1,3,4]thiadiazine] here?
Answer: Its CC50 at 72 h is > 1200 µM.

Question: With `CCc1nnc2n1NC/C(=C/c1ccccc1)S2` [Compound 8c, (Z)-7-benzylidene-3-ethyl-6,7-dihydro-5H-[1,2,4]triazolo[3,4-b][1,3,4]thiadiazine] as the molecule, how does the CC50 at 72 h read?
Answer: The CC50 at 72 h was > 1100 µM.

Question: Which CC50 at 72 h does the source give for `Cc1nnc(S)n1NCC#Cc1ccccc1` [Compound 2b, 5-methyl-4-((3-phenylprop-2-yn-1-yl)amino)-4H-1,2,4-triazole-3-thiol] here?
Answer: Its CC50 at 72 h is > 1200 µM.

Question: Which CC50 at 72 h does the source give for `CCCc1nnc2n1N=C/C(=C/c1ccccc1)S2` [Compound 6d, (Z)-7-benzylidene-3-propyl-7H-[1,2,4]triazolo[3,4-b][1,3,4]thiadiazine] here?
Answer: The CC50 at 72 h was > 1100 µM.

Question: With `Cc1nnc2n1N=C/C(=C/c1ccccc1)S2` [Compound 6b, (Z)-7-benzylidene-3-methyl-7H-[1,2,4]triazolo[3,4-b][1,3,4]thiadiazine] as the molecule, how does the CC50 at 72 h read?
Answer: The CC50 at 72 h was 433 ± 37.6 µM.

Question: Which CC50 at 72 h does the source give for `CCCc1nnc(S)n1NCC#Cc1ccccc1` [Compound 2d, 5-propyl-4-((3-phenylprop-2-yn-1-yl)amino)-4H-1,2,4-triazole-3-thiol] here?
Answer: The CC50 at 72 h was 138 ± 12 µM.

Question: For `Sc1nncn1N=CC#Cc1ccccc1` [Compound 1a, 4-((3-phenylprop-2-yn-1-ylidene)amino)-4H-1,2,4-triazole-3-thiol], which CC50 at 72 h is on record?
Answer: The CC50 at 72 h was 134 ± 11 µM.

Question: With `CCc1nnc2n1N=CC=C(c1ccccc1)S2` [Compound 7c, 3-ethyl-8-phenyl-[1,2,4]triazolo[3,4-b][1,3,4]thiadiazepine] as the molecule, how does the CC50 at 72 h read?
Answer: Its CC50 at 72 h is 6.1 ± 0.3 µM.

Question: For `Cc1nnc(S)n1N=CC#Cc1ccccc1` [Compound 1b, 5-methyl-4-((3-phenylprop-2-yn-1-ylidene)amino)-4H-1,2,4-triazole-3-thiol], which CC50 at 72 h is on record?
Answer: Its CC50 at 72 h is 126 ± 11.3 µM.

Question: For `C1=Nn2cnnc2S/C1=C\c1ccccc1` [Compound 6a, (Z)-7-benzylidene-7H-[1,2,4]triazolo[3,4-b][1,3,4]thiadiazine], which CC50 at 72 h is on record?
Answer: Its CC50 at 72 h is 578 ± 32.3 µM.

Question: With `CCc1nnc(S)n1NCC#Cc1ccccc1` [Compound 2c, 5-ethyl-4-((3-phenylprop-2-yn-1-yl)amino)-4H-1,2,4-triazole-3-thiol] as the molecule, how does the CC50 at 72 h read?
Answer: The CC50 at 72 h was 487 ± 22.5 µM.

Question: With `CCCc1nnc2n1NC/C(=C/c1ccccc1)S2` [Compound 8d, (Z)-7-benzylidene-3-propyl-6,7-dihydro-5H-[1,2,4]triazolo[3,4-b][1,3,4]thiadiazine] as the molecule, how does the CC50 at 72 h read?
Answer: The CC50 at 72 h was > 1100 µM.

Question: For `CCc1nnc2n1N=C/C(=C/c1ccccc1)S2` [Compound 6c, (Z)-7-benzylidene-3-ethyl-7H-[1,2,4]triazolo[3,4-b][1,3,4]thiadiazine], which CC50 at 72 h is on record?
Answer: Its CC50 at 72 h is 979 ± 55.1 µM.

Question: For `C(=C1\CNn2cnnc2S1)/c1ccccc1` [Compound 8a, (Z)-7-benzylidene-6,7-dihydro-5H-[1,2,4]triazolo[3,4-b][1,3,4]thiadiazine], which CC50 at 72 h is on record?
Answer: The CC50 at 72 h was > 1300 µM.

Question: Which CC50 at 72 h does the source give for `CCC(CC)O[C@@H]1C=C(C(=O)O)C[C@H](N)[C@H]1NC(C)=O` [Oseltamivir carboxylate, reference compound] here?
Answer: The CC50 at 72 h was > 100 µM.

Question: For `CCc1nnc(S)n1N=CC#Cc1ccccc1` [Compound 1c, 5-ethyl-4-((3-phenylprop-2-yn-1-ylidene)amino)-4H-1,2,4-triazole-3-thiol], which CC50 at 72 h is on record?
Answer: The CC50 at 72 h was 119 ± 9.6 µM.
